Assay results from patent publication US9802958B2, “Tetrahydro[1,8]naphthyridine sulfonamide and related compounds for use as agonists of RORy and the treatment of disease” (Lycera Corporation, priority 2012, dated 2017).

What follows are compounds tested against T1, RORγ-LBD (Homo sapiens, UniProt P51449) (assay: RORγ-Ligand Binding Domain (LBD) TR-FRET Assay). Details: assay measuring EC50 values less than or equal to 20 μM.
T1 construct: made in house; host or cells: SF9 insect cells, baculovirus; unpurified lysate used
T1 sequence (P51449 269-508 limits assumed): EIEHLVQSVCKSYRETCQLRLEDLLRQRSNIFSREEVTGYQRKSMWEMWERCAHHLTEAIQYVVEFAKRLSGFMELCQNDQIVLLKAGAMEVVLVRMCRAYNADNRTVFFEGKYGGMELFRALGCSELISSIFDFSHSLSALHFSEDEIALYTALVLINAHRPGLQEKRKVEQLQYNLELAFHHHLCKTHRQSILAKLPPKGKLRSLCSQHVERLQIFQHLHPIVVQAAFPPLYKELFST
Format: biochemical
Method: Exemplary compounds from the above Examples were tested for ability to increase RORγ activity using a RORγ-Ligand Binding Domain (LBD) TR-FRET Assay. Assay procedures and results are described below.
Recombinant, HIS-tagged RORγ-LBD was expressed in SF9 cells using a baculovirus expression system. Cells were lysed and the lysate was used as a source for RORγ-LBD for the assay. A 1:80 dilution of RORγ-LBD lysate in assay buffer (25 mM HEPES pH 7.0, 100 mM NaCl, 0.01% Tween, 0.1% BSA) was prepared and 5 μL was added to each well (RORγ-LBD final concentration ˜3 nM). Control wells received lysate from SF9 cells not expressing RORγ-LBD.
Compounds to be tested were diluted to 100× final test concentration in DMSO and further diluted to 4× final test concentration using assay buffer to provide the test compound mixture. An aliquot (5 μL) of the test compound mixture was added to each well.
A 4× stock of biotinylated-LXXLL peptide from SRC1-2 (Biotin-[…]) was prepared in assay buffer and a 5 μL aliquot added to each well (450 nM final concentration). A 4× solution of europium tagged anti-HIS antibody (2 nM final concentration) and APC conjugated streptavidin (60 nM final concentration) were prepared and a 5 μL aliquot added to each well.
The final assay mixture was incubated for 4 hours to overnight, and the fluorescence signal was measured on an Envision plate reader: (Excitation filter=340 nm; APC emission=665 nm; Europium emission=615 nm; dichroic mirror=D400/D630; delay time=100 μs, integration time=200 μs).
EC50 values for test compounds were calculated from the quotient of the fluorescence signal at 665 nm divided by the fluorescence signal at 615 nm using GraphPad Prism software.

Structure (SMILES) | promotion of RORγ activity
Cc1cccc(S(=O)(=O)N2CCOc3ccc(OC(C)c4ccccc4)nc32)c1 (stereo not drawn) [Compound 6] | No promotion of RORγ activity was detected

Same assay, conditions: increase of RORγ activity; recombinant HIS-tagged RORγ-LBD, biotinylated SRC1-2 LXXLL peptide

Structure (SMILES) | EC50 [µM]
Cc1cccc(S(=O)(=O)N2CCOc3ccc(NC(=O)C(C)c4ccccc4)nc32)c1 (stereo not drawn) [Compound 3, 2-Phenyl-N-[4-(toluene-3-sulfonyl)-3,4-dihydro-2H-pyrido[3,2-b][1,4]oxazin-6-yl]-propionamide] | ≤ 15
Cc1cccc(S(=O)(=O)N2CCOc3ccc(OCc4ccccc4)nc32)c1 [Compound 4] | ≤ 15
O=C(Nc1ccc2c(n1)N(S(=O)(=O)c1ccc(F)cc1)CCC2)c1c(F)cccc1F [Compound 1, 2,6-Difluoro-N-(8-(4-fluorobenzenesulfonyl)-5,6,7,8-tetrahydro[1,8]naphthyridin-2-yl)benzamide] | ≤ 15
Cc1cccc(S(=O)(=O)N2CCOc3ccc(NC(=O)c4c(Cl)cccc4Cl)nc32)c1 [Compound 2, 2,6-Dichloro-N-[4-(toluene-3-sulfonyl)-3,4-dihydro-2H-pyrido[3,2-b][1,4]oxazin-6-yl]-benzamide] | ≤ 15
Cc1cccc(S(=O)(=O)N2CCOc3ccc(OCc4c(Cl)cccc4Cl)nc32)c1 [Compound 5] | ≤ 15
